A short description of data set [1]: Plasma clearance in Sprague-Dawley rat at 1 mg/kg, iv relative to hepatic blood flow. Type of data set: ADME, organism-based. Conditions: in vivo.
The target in data set [2] is Calcium/calmodulin-dependent protein kinase type II subunit gamma (Homo sapiens) (UniProt Q13555). In words: Inhibition of wild-type human partial length CAMK2G (R9 to A303 residues) expressed in bacterial expression system at 1 uM by Kinomescan method relative to control.
Data set [3] has as its target Fibroblast growth factor receptor 4 (Homo sapiens) (UniProt P22455). In words: Inhibition of wild-type human partial length FGFR4 (G402 to E713 residues) expressed in bacterial expression system at 1 uM by Kinomescan method relative to control.
Data set [4] concerns the target Ephrin type-B receptor 6 (Homo sapiens) (UniProt O15197). In words: Inhibition of wild-type human partial length EPHB6 (Q634 to P948 residues) expressed in mammalian expression system at 1 uM by Kinomescan method relative to control.
Data set [5] deals with Cyclin-dependent kinase 8 (Homo sapiens) (UniProt P49336). In words: Inhibition of wild-type human partial length CDK8 (M1 to T360 residues) expressed in bacterial expression system at 1 uM by Kinomescan method relative to control.
Data set [6] in a line: Terminal half-life in Sprague-Dawley rat at 1 mg/kg, iv. The following applies: in vivo, read-out: beta t1/2 (converted). The format is ADME, organism-based.
Data set [7] has as its target Platelet-derived growth factor receptor alpha (Homo sapiens) (UniProt P16234). In words: Inhibition of wild-type human partial length PDGFRA (V575 to D1002 residues) expressed in mammalian expression system at 1 uM by Kinomescan method relative to control.
Data set [8] concerns Proto-oncogene tyrosine-protein kinase receptor Ret (Homo sapiens), P07949 [V804L]. In words: Inhibition of human partial length RET V804L mutant (E713 to D1014 residues) expressed in bacterial expression system at 1 uM by Kinomescan method relative to control.
Proto-oncogene tyrosine-protein kinase receptor Ret (Homo sapiens), P07949 [V804L], sequence (P07949 whole entry V804L, the tested form may be a part): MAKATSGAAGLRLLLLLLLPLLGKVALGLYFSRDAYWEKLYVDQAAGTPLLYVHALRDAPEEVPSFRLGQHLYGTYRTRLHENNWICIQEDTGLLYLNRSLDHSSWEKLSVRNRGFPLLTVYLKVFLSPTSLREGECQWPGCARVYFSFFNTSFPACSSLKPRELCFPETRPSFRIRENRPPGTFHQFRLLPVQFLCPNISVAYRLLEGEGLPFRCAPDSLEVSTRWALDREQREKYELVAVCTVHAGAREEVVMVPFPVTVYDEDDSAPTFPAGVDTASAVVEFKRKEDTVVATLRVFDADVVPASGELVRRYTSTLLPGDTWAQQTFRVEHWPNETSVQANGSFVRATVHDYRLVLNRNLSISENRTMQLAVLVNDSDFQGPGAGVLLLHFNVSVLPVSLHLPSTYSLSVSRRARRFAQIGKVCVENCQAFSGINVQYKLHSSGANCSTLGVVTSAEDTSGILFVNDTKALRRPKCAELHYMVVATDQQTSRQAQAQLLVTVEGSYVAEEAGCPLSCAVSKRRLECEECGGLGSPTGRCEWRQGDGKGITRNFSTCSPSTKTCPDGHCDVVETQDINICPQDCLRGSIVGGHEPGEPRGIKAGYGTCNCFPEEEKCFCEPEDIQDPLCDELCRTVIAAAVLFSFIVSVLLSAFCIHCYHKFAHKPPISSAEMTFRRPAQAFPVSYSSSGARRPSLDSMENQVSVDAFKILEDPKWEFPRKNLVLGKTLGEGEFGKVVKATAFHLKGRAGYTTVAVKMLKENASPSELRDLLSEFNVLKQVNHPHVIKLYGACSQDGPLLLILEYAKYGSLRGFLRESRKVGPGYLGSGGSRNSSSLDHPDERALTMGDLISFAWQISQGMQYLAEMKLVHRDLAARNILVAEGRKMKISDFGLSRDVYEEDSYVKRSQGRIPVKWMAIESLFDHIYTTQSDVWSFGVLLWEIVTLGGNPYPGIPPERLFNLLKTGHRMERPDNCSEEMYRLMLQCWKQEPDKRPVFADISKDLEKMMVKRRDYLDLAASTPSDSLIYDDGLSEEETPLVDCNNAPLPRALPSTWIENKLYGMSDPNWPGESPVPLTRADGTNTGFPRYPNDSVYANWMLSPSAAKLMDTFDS
For data set [9], the target named is Mitogen-activated protein kinase kinase kinase 19 (Homo sapiens) (UniProt Q56UN5). In words: Inhibition of wild-type human partial length YSK4 (T1019 to H1328 residues) expressed in mammalian expression system at 10 uM by Kinomescan method relative to control.
In data set [10] the target is SNF-related serine/threonine-protein kinase (Homo sapiens) (UniProt Q9NRH2). In words: Inhibition of wild-type human partial length SNRK (M1 to E339 residues) expressed in mammalian expression system at 10 uM by Kinomescan method relative to control.
SNF-related serine/threonine-protein kinase (Homo sapiens), sequence (Q9NRH2 whole entry, the tested form may be a part, canonical isoform): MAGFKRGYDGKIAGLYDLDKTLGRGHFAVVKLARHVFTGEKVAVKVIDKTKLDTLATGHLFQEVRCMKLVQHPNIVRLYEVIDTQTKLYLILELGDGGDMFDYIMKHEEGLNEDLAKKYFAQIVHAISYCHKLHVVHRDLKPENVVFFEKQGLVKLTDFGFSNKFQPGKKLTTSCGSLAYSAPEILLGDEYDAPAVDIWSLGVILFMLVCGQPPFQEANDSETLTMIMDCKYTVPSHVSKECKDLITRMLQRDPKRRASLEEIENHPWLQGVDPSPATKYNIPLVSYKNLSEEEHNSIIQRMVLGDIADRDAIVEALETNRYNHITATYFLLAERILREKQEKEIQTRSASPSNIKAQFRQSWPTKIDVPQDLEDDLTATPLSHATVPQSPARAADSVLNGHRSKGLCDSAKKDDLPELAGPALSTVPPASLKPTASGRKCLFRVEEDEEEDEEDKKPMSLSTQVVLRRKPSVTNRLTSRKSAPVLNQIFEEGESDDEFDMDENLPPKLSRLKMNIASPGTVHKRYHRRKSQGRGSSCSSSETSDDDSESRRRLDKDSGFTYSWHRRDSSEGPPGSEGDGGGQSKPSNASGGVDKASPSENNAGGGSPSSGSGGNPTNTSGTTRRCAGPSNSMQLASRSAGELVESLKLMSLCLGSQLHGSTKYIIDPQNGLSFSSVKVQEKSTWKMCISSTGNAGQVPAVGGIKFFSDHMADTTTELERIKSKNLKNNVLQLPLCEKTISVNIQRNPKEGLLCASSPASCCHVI
Data set [11] concerns the target Phosphorylase b kinase gamma catalytic chain, skeletal muscle/heart isoform (Homo sapiens) (UniProt Q16816). In words: Inhibition of wild-type human full length PHKG1 (M1 to Y387 residues) expressed in bacterial expression system at 10 uM by Kinomescan method relative to control.
Data set [12] deals with Tyrosine-protein kinase ABL1 (Homo sapiens), P00519 [F317L]. In words: Inhibition of human phosphorylated ABL1 F317L mutant (S229 to K512 residues) expressed in mammalian expression system at 10 uM by Kinomescan method relative to control.

Molecules are shown by their SMILES.

Calcium/calmodulin-dependent protein kinase type II subunit gamma (Homo sapiens), sequence (Q13555 whole entry, the tested form may be a part): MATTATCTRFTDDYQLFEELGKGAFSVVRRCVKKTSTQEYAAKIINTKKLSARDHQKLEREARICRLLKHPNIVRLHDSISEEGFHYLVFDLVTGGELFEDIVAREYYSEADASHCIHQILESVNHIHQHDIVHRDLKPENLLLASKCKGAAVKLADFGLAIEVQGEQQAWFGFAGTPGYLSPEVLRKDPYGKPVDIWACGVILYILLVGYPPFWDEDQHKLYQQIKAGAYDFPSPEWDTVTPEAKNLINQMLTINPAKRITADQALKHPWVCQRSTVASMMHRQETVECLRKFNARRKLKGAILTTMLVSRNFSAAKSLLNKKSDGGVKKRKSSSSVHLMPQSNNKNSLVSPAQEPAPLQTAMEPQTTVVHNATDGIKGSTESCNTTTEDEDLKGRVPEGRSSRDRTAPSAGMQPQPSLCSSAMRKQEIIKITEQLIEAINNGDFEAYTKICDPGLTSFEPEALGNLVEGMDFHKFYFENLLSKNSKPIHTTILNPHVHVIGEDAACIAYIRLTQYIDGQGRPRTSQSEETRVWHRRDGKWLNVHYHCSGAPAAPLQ
Fibroblast growth factor receptor 4 (Homo sapiens), sequence (P22455 22-802 limits assumed): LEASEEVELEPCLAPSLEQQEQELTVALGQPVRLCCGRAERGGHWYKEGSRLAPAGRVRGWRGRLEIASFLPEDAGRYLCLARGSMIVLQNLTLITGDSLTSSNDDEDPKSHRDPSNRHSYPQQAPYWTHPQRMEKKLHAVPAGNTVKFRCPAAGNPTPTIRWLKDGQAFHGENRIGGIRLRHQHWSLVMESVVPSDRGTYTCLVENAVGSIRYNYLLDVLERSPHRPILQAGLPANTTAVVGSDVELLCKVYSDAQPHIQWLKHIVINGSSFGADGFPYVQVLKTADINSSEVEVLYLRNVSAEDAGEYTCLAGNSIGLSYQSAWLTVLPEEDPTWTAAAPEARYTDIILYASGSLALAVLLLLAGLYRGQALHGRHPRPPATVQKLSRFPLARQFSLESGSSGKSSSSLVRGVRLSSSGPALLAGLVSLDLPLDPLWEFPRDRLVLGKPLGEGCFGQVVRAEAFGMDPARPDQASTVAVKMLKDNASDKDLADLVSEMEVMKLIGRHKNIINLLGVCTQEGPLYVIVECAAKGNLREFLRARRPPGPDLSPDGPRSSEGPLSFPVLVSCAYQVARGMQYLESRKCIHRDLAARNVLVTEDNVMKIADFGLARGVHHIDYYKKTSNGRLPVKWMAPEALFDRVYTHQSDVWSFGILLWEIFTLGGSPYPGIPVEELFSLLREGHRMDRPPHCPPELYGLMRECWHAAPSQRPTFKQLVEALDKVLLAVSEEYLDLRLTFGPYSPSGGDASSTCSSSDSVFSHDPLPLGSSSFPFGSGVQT
Platelet-derived growth factor receptor alpha (Homo sapiens), sequence (P16234 whole entry, the tested form may be a part): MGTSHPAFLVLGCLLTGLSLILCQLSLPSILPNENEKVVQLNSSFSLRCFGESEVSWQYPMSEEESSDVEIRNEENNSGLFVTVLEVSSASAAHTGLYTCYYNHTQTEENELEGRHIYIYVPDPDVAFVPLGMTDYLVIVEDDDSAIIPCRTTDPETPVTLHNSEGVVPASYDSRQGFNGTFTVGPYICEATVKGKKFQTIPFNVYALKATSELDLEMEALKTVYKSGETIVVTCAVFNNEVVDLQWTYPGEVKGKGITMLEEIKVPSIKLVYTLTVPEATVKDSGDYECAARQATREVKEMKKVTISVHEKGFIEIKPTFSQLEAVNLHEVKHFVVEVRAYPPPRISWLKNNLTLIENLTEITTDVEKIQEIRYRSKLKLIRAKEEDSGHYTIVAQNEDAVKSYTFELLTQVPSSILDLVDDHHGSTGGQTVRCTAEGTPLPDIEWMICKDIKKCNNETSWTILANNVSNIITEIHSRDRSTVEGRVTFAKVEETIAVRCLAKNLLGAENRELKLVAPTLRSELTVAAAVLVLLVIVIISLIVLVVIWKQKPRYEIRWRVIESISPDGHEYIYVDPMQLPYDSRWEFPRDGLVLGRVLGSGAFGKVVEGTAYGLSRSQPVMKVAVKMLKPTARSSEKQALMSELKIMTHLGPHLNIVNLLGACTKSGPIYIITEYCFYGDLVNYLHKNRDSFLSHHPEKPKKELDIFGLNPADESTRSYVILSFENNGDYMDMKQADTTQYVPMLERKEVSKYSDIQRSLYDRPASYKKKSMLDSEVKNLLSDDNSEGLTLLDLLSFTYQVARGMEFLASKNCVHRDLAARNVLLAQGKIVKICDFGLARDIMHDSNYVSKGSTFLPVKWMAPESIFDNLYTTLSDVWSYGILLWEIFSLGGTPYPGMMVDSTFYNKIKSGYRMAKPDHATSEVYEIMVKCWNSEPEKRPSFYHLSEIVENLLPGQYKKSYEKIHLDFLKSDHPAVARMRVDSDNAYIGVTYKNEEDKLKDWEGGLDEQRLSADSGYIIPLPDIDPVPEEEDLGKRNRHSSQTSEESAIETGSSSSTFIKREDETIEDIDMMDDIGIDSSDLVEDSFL
Phosphorylase b kinase gamma catalytic chain, skeletal muscle/heart isoform (Homo sapiens), sequence (Q16816 whole entry, looked up, the tested form may be a part, canonical isoform): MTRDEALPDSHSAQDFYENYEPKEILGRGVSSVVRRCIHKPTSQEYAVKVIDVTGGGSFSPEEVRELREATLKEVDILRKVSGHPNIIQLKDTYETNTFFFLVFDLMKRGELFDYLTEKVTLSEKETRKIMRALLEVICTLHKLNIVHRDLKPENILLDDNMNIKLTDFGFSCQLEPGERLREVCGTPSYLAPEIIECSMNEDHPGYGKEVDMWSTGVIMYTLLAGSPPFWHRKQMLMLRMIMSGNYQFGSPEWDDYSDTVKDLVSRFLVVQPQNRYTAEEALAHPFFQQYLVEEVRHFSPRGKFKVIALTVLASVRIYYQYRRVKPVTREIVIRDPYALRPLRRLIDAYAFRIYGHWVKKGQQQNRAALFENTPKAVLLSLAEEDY

In [1], `O=C(Nc1cccc([C@@H]2CN(c3ncnc4[nH]ccc34)CCN2CCO)c1)Nc1c(F)cccc1N1CCCC1` returned a CL of 11%. For the same compound, the inhibition came out at 99% in [2]; 100% in data set [3]; 100% in data set [4]; 84% in [5]; 85% in data set [7]; 0.2% in [8]. Moreover, in data set [6], the half-life is 2.5 h.
`O=C(Nc1cccc([C@H]2CCCN(c3ncnc4[nH]ccc34)C2)c1)Nc1ccccc1N1CCCC1`: the inhibition was 2.3% in data set [9], 86% in data set [10], 91% in data set [11] and 87% in [12].

Usually inhibition stands for the relative decrease from the control value, in per cent.

(Values after ChEMBL document CHEMBL4387741, “Optimization of novel reversible Bruton's tyrosine kinase inhibitors identified using Tethering-fragment-based screens” (Bioorg Med Chem, 2019).)
